Measurements as given in US10758619B2, “Controlled release mucoadhesive systems” (THE OHIO STATE UNIVERSITY, priority 2010, dated 2020).
Values after ≈ are worked out from the molar mass of the structure shown.

What was measured:
[1] = Water solubility of fenretinide; type: physicochemical
[2] = Solubility of fenretinide in simulated saliva; type: physicochemical; conditions: pH 6.8
Description: The extent of solubility enhancement of fenretinide by numerous solubilizers (bile salts, surfactants, hydrophilic polymers, and co-solvents) was studied by determining the solubility in simulated saliva in the presence of 0.5, 1, 2, and 5% w/v solubilizers. Briefly, an excess amount of fenretinide was added into separate amber color ampoules containing 1-mL 0.5, 1, 2, and 5% w/v solutions of solubilizers (prepared using N2-purged simulated saliva) and sealed under vacuum in order remove the oxygen from the head-space. The ampoules were then placed in an incubator maintained at 37° C. and shaken at 240 RPM for 72 h (this duration was determined to be sufficient to reach the equilibrium). After 72 h, the ampoules were broken, mixture was passed through 0.45 μm PVDF filter units (Millipore, USA), diluted suitably with respective solubilizer solution, and the amount of fenretinide solubilized in simulated saliva was determined by HPLC.

[3] = Fenretinide solubility in bovine serum; type: physicochemical; conditions: for time required to achieve equilibrium with bovine serum: 37° C.
Description: Excessive amount of fenretinide was added into fetal bovine serum in polypropylene tubes. The sample was placed on a mechanical circulator and incubated at 37 C avoiding light. At every 24 hours (until fenretinide reached saturation in serum), the sample was centrifuged at 8000 rpm for 10 minutes. 0.2 ml sample was drawn from the supernatant. This volume was immediately replaced using blank serum. The tubes were shook to mix the supernatant and sediment, and then re-placed on the mechanical circulator and incubated at 37 C. The fenretinide concentration in the supernatant was measured by a HPLC assay after extraction using acetonitrile.
A known quantity (0.9, 2.26, 3.97, 8.03, and 20.5 mg) of fenretinide was added to polypropylene tubes containing 15 mL fetal bovine serum. The samples were incubated at 37° C. under constant rotation using a rigged rotator and protection from light. At every 24 h till 7 days, the samples were centrifuged at 8000 rpm for 10 minutes and 200 μl of supernatant was withdrawn. Withdrawn serum sample was replaced with fresh serum sample, mixed properly, and incubated again under similar conditions. To the withdrawn sample (200 μl), 2 mL of acetonitrile was added, agitated overnight on a mechanical shaker with protection from light, passed through 0.45 μm PVDF filter units, and analyzed by HPLC.

[4] = cited from earlier work
[5] = tested on: cellular terminal differentiation and apoptosis; conditions: cited from earlier work

water solubility [1]: below HPLC detection limit
solubility in simulated saliva [2]: insoluble
time required to achieve equilibrium with bovine serum ([3]; 0.9 mg fenretinide in 15 mL serum): 7 days
time required to achieve equilibrium with bovine serum ([3]; 8.03 mg fenretinide in 15 mL serum): 4 days
solubility of fenretinide in bovine serum ([3]; fetal bovine serum, 37° C. (Example 3, FIG. 10A)): 21 µg/mL
solubility at 6 days ([3]; plasma or biological fluid, thermodynamic from solid, fetal bovine serum, 37 C, after 6 days incubation (Example 2)): 20.9 ± 1.02 µg/mL (≈ 53.5 µM)
solubility ([3]; plasma or biological fluid, thermodynamic from solid, fetal bovine serum, 37° C. (Example 3, FIG. 10A)): 21 ± 1 µg/mL (≈ 53.6 µM)
Structure (SMILES): CC1=C(/C=C/C(C)=C/C=C/C(C)=C/C(=O)Nc2ccc(O)cc2)C(C)(C)CCC1 [Fenretinide, 4-hydroxy(phenyl)retinamide]
intrinsic aqueous solubility [4]: 0.0098 µg/mL
in vitro concentration inducing apoptosis [5]: > 5 µM
in vitro concentration inducing cellular terminal differentiation [5]: < 3 µM
